Experiment [1] has as its system MC38 murine colon carcinoma cells. In words: Example 1: tumor growth delay, MC38 murine colon carcinoma in C57BL/6 mice. Type of experiment: in vivo, mouse. As to conditions: for Median TTE: endpoint 1000 mm^3 or Day 47, n=10; for % TGD: vs vehicle. As to the method:
In the present example, HBI-8000 was tested as monotherapy and in combination with anti-PD-1 at 5 mg/kg. The experiment included a vehicle-treated group, and a PD-1 inhibitor antibody monotherapy group, which served as the control groups for analysis of efficacy. Tumors were measured twice per week until the study was ended on Day 47. Each animal was euthanized when its tumor attained the endpoint tumor volume of 1000 mm^3 or on the final day of the study, whichever came first, and the time to endpoint (TTE) for each mouse was calculated. Treatment response was determined from an analysis of percent tumor growth delay (% TGD), defined as the percent increase in the median time to endpoint (TTE) for treated versus control mice; and by log rank significance of differences in survival among groups and regression responses.
Mice: Female C57BL/6 mice (Charles River Laboratories) were eight weeks old, with a body weight (BW) range of 15.4 to 22.0 grams on Day 1 of the study. The animals were fed ad libitum water (reverse osmosis, 1 ppm Cl), and NIH 31 Modified and Irradiated Lab Diet® consisting of 18.0% crude protein, 5.0% crude fat, and 5.0% crude fiber. The mice were housed on irradiated Enrich-o'Cobs™ Laboratory Animal Bedding in static microisolators on a 12-hour light cycle at 20-22° C. (68-72° F.) and 40-60% humidity.
Tumor Cells: MC38 murine colon carcinoma cells were maintained in Dulbecco's Modified Eagle Medium (DMEM) supplemented with 10% fetal bovine serum and 2 mM glutamine, 100 units/mL penicillin G sodium, […] streptomycin sulfate, and 25 μg/mL gentamicin. Cell cultures were maintained in tissue culture flasks in a humidified incubator at 37° C., in an atmosphere of 5% CO2 and 95% air.
Tumor Implantation: Cells were harvested during exponential growth, and resuspended in cold DMEM. Each mouse was inoculated subcutaneously in the right flank with 1×10^6 cells (0.1 mL of cell suspension). Tumors were calipered in two dimensions to monitor growth as their mean volume approached the desired 100-150 mm^3 range. Tumor burden was calculated using the formula:
[formula] where w=width and l=length, in mm, of the tumor. Tumor weight may be estimated with the assumption that 1 mg is equivalent to 1 mm^3 of tumor volume. Fourteen days after tumor implantation, which was designated as Day 1 of the study, animals with individual tumor volumes from 75 to 221 mm^3 were sorted into eleven groups (n=10/group) with group mean tumor volume of 130-133 mm^3. […]
Tumor Growth Delay: Tumors were measured using calipers twice per week, and each animal was euthanized when its tumor reached a volume of 1000 mm^3 or at the end of the study (D47), whichever came first. […] The time to endpoint (TTE) for analysis was calculated for each mouse by the following equation: […]

A further experiment concerns the target HDAC 2 (Homo sapiens, UniProt Q92769). The note with it: reported by Ning et al.; cited from earlier work.
The mark [2] stands for this setting: HBI-8000 20 mg/kg p.o. qd×21, alone or plus anti-PD-1 5 mg/kg i.p. biwk×3.
[3] abbreviates: HBI-8000 50 mg/kg p.o. qd×21, alone or plus anti-PD-1 5 mg/kg i.p. biwk×3.

Sequence of HDAC 2 (Q92769 whole entry): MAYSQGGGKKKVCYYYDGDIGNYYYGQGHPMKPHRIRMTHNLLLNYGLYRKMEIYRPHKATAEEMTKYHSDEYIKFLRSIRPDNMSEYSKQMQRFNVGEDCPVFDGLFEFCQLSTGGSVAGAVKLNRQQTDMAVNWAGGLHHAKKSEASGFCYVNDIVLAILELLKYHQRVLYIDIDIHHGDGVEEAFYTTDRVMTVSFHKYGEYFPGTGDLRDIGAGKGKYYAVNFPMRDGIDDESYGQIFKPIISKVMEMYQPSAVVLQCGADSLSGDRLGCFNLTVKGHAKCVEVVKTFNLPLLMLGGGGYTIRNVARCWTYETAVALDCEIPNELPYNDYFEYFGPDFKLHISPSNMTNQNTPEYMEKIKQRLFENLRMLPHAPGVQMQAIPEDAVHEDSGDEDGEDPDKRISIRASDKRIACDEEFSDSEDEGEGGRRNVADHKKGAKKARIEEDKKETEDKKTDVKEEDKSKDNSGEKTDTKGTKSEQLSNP

`Nc1cc(F)ccc1NC(=O)c1ccc(CNC(=O)/C=C/c2cccnc2)cc1` [HBI-8000, N-(2-amino-4-fluorophenyl)-4-[[[(2E)-1-oxo-3-(3-pyridinyl)-2-propen-1-yl]amino]methyl]benz amide]: in experiment [1] (setting [2]), the “Median TTE” value came out at 18.9 days and the “% TGD” value is −8%. In experiment [1] (setting [3]), the “Median TTE” value was 22.8 days and the “% TGD” value worked out at 11%. Besides, at HDAC 2, the “activity at HDAC 2 compared with Entinostat” value was “more active than Entinostat” and the “inhibition of HDAC 2” value was “low nanomolar concentrations”.
